From ChEMBL document CHEMBL1201862, “PubChem BioAssay data set” (2004)
Activity calls are given as the source filed them.

Legend:
[1] = target: T1, Insulin-degrading enzyme (Homo sapiens, UniProt P14735); assay: Dose Response: Fluorescence polarization-based cell-based high throughput dose response assay for inhibitors of insulin-degrading enzyme (IDE). [Related pubchem assays: 434962 (Primary screen (IDE inhibitors in singlicate)), 449730 (Counterscreen (Cytotoxicity in triplicate)), 435028 (Confirmation (IDE inhibitors in triplicate)), 434984 (Summary …; assay type: functional
T1 sequence (P14735 whole entry): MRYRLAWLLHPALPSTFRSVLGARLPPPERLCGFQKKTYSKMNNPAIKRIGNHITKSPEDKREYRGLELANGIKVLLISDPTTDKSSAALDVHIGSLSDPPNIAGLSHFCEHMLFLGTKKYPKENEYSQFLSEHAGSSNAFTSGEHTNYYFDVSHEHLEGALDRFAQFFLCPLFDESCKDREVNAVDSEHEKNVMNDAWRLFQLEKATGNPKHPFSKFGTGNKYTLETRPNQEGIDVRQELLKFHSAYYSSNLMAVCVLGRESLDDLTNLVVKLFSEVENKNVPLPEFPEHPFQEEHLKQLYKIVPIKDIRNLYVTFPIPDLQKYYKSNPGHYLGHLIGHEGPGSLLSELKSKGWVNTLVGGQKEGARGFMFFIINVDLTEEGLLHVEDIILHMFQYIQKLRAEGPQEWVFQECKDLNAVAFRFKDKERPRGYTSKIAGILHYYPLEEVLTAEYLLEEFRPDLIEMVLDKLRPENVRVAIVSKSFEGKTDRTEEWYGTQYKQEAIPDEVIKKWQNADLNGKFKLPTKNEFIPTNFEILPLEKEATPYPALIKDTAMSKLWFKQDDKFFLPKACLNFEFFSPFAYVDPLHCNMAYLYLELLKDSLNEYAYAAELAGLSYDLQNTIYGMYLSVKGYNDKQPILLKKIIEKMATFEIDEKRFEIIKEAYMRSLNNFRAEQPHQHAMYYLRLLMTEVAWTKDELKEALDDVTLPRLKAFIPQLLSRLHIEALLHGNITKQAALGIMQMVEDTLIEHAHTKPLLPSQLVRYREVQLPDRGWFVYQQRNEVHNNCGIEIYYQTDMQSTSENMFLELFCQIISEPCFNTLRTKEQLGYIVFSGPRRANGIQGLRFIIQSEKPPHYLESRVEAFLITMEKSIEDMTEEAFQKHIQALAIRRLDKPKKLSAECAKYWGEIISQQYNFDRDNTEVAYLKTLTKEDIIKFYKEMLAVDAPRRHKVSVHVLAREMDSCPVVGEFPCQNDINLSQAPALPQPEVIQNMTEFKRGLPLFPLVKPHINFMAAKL

[2] = Counterscreen for IDE inhibitors: Luminescence-based cell-based high throughput dose response assay to identify compounds that are cytotoxic to HEK cells. [Related pubchem assays: 434962 (Primary screen (IDE inhibitors in singlicate)), 449730 (Counterscreen (Cytotoxicity in triplicate)), 435028 (Confirmation (IDE inhibitors in triplicate)) …; assay type: functional; settings: HEK293
[3] = target: T2, Short transient receptor potential channel 4 (Mus musculus, UniProt Q9QUQ5); assay: mouse TRPC4 channel inhibitors, dose response, cell-based, HEK293 TRPC4/mu-opioid, Fluo-4 calcium (AID 434942); assay type: functional;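 note: potency of inhibitors blocking the TRPC4 calcium response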
T2 sequence (Q9QUQ5 whole entry): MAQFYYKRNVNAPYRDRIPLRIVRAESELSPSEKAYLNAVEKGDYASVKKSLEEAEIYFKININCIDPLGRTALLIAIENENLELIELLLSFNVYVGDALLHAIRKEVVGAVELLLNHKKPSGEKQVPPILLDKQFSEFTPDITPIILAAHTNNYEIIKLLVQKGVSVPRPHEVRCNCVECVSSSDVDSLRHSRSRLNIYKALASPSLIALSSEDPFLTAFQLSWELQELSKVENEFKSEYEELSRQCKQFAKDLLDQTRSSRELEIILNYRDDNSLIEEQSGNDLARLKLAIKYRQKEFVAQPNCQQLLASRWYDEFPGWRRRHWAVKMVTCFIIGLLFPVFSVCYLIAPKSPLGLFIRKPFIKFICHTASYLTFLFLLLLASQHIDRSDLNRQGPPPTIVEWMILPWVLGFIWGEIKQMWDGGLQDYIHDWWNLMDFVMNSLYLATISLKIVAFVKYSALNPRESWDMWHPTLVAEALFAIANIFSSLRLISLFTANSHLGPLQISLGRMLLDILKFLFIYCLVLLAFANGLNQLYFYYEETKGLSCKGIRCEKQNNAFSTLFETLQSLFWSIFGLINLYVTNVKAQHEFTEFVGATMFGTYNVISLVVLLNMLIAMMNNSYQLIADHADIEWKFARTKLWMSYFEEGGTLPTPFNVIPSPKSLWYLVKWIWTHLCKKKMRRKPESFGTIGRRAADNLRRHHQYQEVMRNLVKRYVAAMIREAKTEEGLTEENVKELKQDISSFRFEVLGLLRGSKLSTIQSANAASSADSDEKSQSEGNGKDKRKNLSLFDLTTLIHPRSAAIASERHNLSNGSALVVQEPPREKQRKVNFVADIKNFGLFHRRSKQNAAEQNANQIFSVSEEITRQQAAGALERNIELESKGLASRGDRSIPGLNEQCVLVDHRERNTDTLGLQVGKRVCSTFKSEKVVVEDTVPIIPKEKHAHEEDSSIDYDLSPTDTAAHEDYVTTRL

[4] = target: T3, Voltage-gated N-type calcium channel alpha-1B subunit/Amyloid beta A4 precursor protein-binding family A member 1 (Homo sapiens, UniProt Q00975+Q02410); assay: disruptors of Mint-PDZ/N-type channel peptide interaction – biochemical, HTRF, SAR follow-up (AID 2489); assay type: functional
T3 sequence (Q00975 whole entry): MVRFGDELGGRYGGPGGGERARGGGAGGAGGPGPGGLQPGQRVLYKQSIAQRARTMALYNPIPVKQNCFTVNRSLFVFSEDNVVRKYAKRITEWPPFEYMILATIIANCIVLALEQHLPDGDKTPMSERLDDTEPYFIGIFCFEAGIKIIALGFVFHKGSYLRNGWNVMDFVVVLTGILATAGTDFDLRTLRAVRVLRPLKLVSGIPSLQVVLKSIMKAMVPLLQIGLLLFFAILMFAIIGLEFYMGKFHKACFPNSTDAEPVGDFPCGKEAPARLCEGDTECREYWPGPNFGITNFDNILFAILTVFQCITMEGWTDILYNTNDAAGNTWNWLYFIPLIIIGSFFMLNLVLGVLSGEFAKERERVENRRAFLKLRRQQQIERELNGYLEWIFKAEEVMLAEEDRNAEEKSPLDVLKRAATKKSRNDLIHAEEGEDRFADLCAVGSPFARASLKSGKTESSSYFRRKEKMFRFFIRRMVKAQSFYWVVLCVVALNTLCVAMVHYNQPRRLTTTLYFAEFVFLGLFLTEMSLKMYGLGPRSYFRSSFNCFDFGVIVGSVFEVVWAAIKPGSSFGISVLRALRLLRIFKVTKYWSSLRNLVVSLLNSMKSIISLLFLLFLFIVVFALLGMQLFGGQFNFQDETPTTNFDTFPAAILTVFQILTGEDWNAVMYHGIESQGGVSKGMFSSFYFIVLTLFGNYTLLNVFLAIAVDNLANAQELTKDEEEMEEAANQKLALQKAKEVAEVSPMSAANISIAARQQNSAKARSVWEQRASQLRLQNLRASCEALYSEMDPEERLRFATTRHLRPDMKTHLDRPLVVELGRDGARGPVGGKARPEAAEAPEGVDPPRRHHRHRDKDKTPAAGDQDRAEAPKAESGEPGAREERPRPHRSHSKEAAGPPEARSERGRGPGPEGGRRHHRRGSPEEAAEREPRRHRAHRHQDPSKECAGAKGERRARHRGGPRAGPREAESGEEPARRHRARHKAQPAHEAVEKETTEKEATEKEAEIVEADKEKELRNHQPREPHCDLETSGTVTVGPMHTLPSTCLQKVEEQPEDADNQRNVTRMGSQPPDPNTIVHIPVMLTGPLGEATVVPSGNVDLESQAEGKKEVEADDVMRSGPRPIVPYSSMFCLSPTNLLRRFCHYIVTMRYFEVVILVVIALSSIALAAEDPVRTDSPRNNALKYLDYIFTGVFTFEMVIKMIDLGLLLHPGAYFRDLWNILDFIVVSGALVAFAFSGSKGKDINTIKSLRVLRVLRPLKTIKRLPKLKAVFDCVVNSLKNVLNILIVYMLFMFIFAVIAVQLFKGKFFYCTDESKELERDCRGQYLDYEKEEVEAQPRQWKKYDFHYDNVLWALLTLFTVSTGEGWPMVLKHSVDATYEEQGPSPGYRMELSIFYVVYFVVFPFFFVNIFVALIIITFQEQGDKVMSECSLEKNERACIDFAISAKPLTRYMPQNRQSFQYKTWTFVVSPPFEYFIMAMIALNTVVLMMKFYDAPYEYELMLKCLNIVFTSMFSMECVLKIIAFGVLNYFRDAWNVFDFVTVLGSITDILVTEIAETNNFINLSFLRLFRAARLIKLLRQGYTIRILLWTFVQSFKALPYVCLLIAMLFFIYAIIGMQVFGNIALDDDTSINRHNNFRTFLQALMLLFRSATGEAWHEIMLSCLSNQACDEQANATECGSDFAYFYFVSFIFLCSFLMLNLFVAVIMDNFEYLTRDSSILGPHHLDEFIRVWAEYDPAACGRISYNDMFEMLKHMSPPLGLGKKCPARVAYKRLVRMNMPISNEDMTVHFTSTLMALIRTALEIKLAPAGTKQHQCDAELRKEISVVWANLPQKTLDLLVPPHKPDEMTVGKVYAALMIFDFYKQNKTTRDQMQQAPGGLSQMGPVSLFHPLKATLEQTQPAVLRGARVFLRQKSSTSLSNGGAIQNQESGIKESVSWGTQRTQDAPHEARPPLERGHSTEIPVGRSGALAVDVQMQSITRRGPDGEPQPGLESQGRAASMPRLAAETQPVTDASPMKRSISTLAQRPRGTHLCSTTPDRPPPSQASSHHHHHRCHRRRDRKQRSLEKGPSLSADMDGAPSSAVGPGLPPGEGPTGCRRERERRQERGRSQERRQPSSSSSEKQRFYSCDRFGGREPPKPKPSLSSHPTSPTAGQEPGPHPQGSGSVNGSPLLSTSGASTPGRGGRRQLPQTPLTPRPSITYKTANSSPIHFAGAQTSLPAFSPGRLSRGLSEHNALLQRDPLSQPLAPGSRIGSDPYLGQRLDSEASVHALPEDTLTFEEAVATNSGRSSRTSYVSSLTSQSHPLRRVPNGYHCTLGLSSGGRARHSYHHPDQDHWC
T3 sequence (Q02410 whole entry): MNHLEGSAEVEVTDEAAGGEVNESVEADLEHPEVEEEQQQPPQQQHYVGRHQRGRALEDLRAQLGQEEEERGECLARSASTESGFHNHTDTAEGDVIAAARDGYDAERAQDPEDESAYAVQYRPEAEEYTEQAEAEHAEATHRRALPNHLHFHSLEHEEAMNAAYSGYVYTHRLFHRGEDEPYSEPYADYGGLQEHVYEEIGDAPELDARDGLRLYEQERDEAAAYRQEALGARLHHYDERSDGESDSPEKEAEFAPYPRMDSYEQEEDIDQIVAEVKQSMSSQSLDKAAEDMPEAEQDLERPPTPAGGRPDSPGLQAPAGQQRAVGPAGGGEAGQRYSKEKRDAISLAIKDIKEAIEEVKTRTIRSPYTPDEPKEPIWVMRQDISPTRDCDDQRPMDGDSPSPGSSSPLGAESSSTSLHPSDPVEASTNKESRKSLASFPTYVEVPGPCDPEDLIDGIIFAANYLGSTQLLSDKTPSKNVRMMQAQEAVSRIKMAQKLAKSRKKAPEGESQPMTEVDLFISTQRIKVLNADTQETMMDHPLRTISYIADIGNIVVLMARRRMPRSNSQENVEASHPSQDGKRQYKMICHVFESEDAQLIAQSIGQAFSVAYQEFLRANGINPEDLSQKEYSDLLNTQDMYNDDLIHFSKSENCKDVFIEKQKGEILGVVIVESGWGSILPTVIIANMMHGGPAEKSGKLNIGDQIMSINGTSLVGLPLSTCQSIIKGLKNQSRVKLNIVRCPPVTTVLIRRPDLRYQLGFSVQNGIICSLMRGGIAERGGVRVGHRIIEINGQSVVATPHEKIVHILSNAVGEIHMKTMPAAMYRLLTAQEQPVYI

[5] = target: T3, Voltage-gated N-type calcium channel alpha-1B subunit/Amyloid beta A4 precursor protein-binding family A member 1; assay type: protein assay
[6] = target: T3, Voltage-gated N-type calcium channel alpha-1B subunit/Amyloid beta A4 precursor protein-binding family A member 1; assay type: protein assay; remark: listed apart in the source
[7] = system: Vero; assay: Vero E6 cell cytotoxicity, SAR follow-up, cytotoxicity control for West Nile virus antiviral project, synthesized analogs (AID 2244); assay type: functional; settings: Chlorocebus sabaeus
[8] = A Cell Based Assay for the Identification of Probe candidate Compounds with Anti- Venezuelan Equine Encephalitis virus. [Related pubchem assays: 2409, 2419, 1621, 2238, 2405, 2024, 2065, 2402, 2414, 1635, 1650, 2244 ]; assay type: functional
[9] = system: Vero; assay: cytotoxicity of synthesized analogs in Vero cells, SAR follow-up, cytotoxicity control for West Nile virus antiviral project, cell-based, set II (AID 2402); assay type: functional; settings: Chlorocebus sabaeus
[10] = target: Protein Rev (Human immunodeficiency virus type 1 group M subtype B (isolate HXB2)(HIV-1), UniProt P04618); assay: inhibitors of Rev binding to RRE RNA, dose response, biochemical, fluorescence polarization, HIV-1 (AID 434976); parameters: species or system Human immunodeficiency virus 1
Sequence of Protein Rev (P04618 whole entry): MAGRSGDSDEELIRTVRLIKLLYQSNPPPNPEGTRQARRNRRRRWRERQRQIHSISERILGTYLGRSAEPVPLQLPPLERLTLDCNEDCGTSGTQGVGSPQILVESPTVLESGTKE

[11] = target: Female germline-specific tumor suppressor gld-1 (Caenorhabditis elegans, UniProt Q17339); assay: inhibitors of GLD-1 binding to TGE RNA, dose response, biochemical, fluorescence polarization, C. elegans (AID 2802);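 note: fluorescence polarization of labeled TGE RNA bound by purified gld-1 protein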
Sequence of Female germline-specific tumor suppressor gld-1 (Q17339 whole entry): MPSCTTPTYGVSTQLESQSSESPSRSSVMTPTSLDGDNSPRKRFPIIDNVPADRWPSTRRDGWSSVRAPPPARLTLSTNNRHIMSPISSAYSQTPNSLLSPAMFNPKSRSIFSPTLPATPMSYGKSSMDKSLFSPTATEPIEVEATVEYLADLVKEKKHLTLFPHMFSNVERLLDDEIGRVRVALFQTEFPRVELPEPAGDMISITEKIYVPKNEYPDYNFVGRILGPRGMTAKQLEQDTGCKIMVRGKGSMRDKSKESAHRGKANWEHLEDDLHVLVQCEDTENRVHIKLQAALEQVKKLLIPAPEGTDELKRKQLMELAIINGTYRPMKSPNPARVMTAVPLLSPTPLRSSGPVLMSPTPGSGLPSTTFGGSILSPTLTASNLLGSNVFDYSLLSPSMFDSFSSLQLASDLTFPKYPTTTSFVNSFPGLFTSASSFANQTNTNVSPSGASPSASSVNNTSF

[12] = target: T4, Bcl-2-like protein 10 (Homo sapiens, UniProt Q9HD36); assay: Biochemical TR3 FP assay of Bcl-B inhibitor potency, EC50 (AID 1243); assay type: functional
T4 sequence (Q9HD36 whole entry): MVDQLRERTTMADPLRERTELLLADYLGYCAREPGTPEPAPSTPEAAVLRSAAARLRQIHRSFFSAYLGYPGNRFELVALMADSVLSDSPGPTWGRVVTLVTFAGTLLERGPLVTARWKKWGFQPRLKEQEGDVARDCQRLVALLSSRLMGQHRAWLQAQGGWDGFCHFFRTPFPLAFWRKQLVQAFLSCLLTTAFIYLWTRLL

[13] = target: Lysosomal acid glucosylceramidase (Homo sapiens, UniProt P04062); assay: Dose response cell-based high throughput screening assay to identify enhancers of beta-glucosidase activity. [Related pubchem assays: 784 ]; assay type: functional
Sequence of Lysosomal acid glucosylceramidase (P04062 whole entry): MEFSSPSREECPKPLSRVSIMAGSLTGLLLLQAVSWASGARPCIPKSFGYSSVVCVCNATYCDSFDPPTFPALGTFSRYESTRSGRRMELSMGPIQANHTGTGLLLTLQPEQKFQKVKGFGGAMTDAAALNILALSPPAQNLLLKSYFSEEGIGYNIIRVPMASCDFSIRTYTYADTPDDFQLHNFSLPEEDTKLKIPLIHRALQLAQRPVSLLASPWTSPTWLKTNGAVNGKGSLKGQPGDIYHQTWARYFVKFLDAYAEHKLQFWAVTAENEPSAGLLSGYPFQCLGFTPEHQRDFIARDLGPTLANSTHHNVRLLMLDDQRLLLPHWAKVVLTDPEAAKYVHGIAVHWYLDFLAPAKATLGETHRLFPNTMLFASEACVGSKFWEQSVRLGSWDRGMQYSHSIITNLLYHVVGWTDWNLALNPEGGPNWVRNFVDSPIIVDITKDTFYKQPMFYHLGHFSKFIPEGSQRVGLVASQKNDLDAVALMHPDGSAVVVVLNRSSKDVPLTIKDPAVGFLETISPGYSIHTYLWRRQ

[14] = target: Acyl-homoserine lactone acylase PvdQ (Pseudomonas aeruginosa (strain LESB58), UniProt Q9I194); assay: P. aeruginosa PvdQ acylase inhibitors, dose response, biochemical, fluorescence, plate reader and imaging, cherry-picks (AID 493231)
Sequence of Acyl-homoserine lactone acylase PvdQ (Q9I194 24-193 limits assumed): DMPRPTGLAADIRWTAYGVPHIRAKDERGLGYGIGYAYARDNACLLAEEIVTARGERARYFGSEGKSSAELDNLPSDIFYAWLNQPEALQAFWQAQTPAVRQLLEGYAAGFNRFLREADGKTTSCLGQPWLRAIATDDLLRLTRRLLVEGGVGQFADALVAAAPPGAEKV
Sequence of Acyl-homoserine lactone acylase PvdQ (Q9I194 217-762 limits assumed): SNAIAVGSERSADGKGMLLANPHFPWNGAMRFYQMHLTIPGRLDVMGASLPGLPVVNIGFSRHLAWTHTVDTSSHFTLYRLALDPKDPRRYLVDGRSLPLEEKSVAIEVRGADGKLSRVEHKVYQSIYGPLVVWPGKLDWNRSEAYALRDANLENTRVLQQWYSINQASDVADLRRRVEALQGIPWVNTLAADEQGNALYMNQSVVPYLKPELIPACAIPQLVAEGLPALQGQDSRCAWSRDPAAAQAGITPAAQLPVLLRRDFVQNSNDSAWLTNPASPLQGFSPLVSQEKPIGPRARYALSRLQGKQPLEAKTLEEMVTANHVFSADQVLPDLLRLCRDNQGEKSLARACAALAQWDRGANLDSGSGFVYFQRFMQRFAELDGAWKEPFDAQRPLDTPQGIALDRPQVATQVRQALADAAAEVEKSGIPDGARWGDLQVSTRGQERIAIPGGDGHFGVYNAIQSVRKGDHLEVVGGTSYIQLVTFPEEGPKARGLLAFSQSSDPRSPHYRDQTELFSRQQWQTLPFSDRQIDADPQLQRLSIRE

With Cc1cccc(-c2nnc(SCc3nc4ccccc4[nH]3)n2Cc2ccco2)c1 the IC50 [1] was 5.67 µM (active), the IC50 [2] was 22.5 µM (not active) and the EC50 [3] was 1.19 µM (active).

In the case of CCCCc1ccc(/C=C2\C(=O)c3ccccc3C(O)=C2C(=O)OCC)cc1, the IC50 [4] is reported as 16.2 µM (active), the IC50 [5] is reported as 5.63 µM (active) and the IC50 [6] is reported as 17.8 µM (active).

With CCCCN(C(=O)c1ccccc1Cl)c1nc(-c2ccc(OC)cc2)cs1 the CC50 [7] was > 40 µM (active), the IC50 [8] was > 66.6 µM (active) and the CC50 [9] was > 100 µM (active).

In the case of COc1ccc(NC(=O)c2ccc(-c3ccc(C(C)=O)cc3)o2)cn1, the IC50 [10] is reported as 16.4 µM (not active) and the IC50 [11] is reported as 9.1 µM (active).

With O=C(O)C1Nc2ccc3ccccc3c2C2C=CCC12 (centres undefined) the EC50 [12] was 7.15 µM (active).

With Cc1cc2ccccc2c(=O)n1CC(=O)NCC(=O)N1CCN(c2ccccc2)CC1 the EC50 [13] was > 10 µM (not active).

In the case of CCCCCC1CC(COc2ccccc2)OC1=O (centres undefined), the AC50 [14] is reported as 6.27 µM (active).
